US12303497B2, “Anti-androgens for the treatment of metastatic castration-sensitive prostate cancer” (priority 2019, dated 2025)

Tested on: patients with metastatic castration-sensitive prostate cancer (mCSPC)
Details: Grade ≥3

## CNC(=O)c1ccc(N2C(=S)N(c3cnc(C#N)c(C(F)(F)F)c3)C(=O)C23CCC3)cc1F [Apalutamide, 4-[7-(6-cyano-5-trifluoromethylpyridin-3-yl)-8-oxo-6-thioxo-5,7-diazaspiro[3.4]oct-5-yl]-2-fluoro-N-methylbenzamide]
  AE leading to discontinuation: Lip swelling: 0 no. (%)
  AE leading to discontinuation: Loss of consciousness: 0 no. (%)
  AE leading to discontinuation: New cancer neoplasm: 5 (1.0) no. (%)
  AE leading to discontinuation: Parkinson's disease: 1 (0.2) no. (%)
  AE leading to discontinuation: Pleural effusion: 0 no. (%)
  AE leading to discontinuation: Pulmonary edema: 0 no. (%)
  AE leading to discontinuation: Pulmonary embolism: 1 (0.2) no. (%)
  AE leading to discontinuation: Radiculopathy: 1 (0.2) no. (%)
  AE leading to discontinuation: Rash (grouped term): 7 (1.3) no. (%)
  AE leading to discontinuation: Respiratory failure: 0 no. (%)
  AE leading to discontinuation: Seizure: 1 (0.2) no. (%)
  AE leading to discontinuation: Subdural hemorrhage: 0 no. (%)
  AE leading to discontinuation: Sudden cardiac death: 1 (0.2) no. (%)
  AE leading to discontinuation: Sudden death: 0 no. (%)
  AE leading to dose interruption: Anxiety: 0 no. (%)
  AE leading to dose interruption: Arthralgia: 0 no. (%)
  AE leading to dose interruption: Aspartate aminotransferase or alanine aminotransferase increased: 4 (0.8) no. (%)
  AE leading to dose interruption: Asthenia: 3 (0.6) no. (%)
  AE leading to dose interruption: Atrial fibrillation: 1 (0.2) no. (%)
  AE leading to dose interruption: Bile duct obstruction: 0 no. (%)
  AE leading to dose interruption: Blood alkaline phosphatase increased: 1 (0.2) no. (%)
  AE leading to dose interruption: Cardiac amyloidosis: 0 no. (%)
  AE leading to dose interruption: Cardiac disorder: 0 no. (%)
  AE leading to dose interruption: Cardiac failure: 0 no. (%)
  AE leading to dose interruption: Cardiac failure congestive: 1 (0.2) no. (%)
  AE leading to dose interruption: Cerebrovascular accident: 1 (0.2) no. (%)
  AE leading to dose interruption: Cheilitis: 0 no. (%)
  AE leading to dose interruption: Chronic hepatitis: 0 no. (%)
  AE leading to dose interruption: Chronic obstructive pulmonary disease: 2 (0.4) no. (%)
  AE leading to dose interruption: Cognitive disorder: 1 (0.2) no. (%)
  AE leading to dose interruption: Confusional state: 1 (0.2) no. (%)
  AE leading to dose interruption: Constipation: 0 no. (%)
  AE leading to dose interruption: Decreased appetite: 1 (0.2) no. (%)
  AE leading to dose interruption: Dehydration: 0 no. (%)
  AE leading to dose interruption: Depression: 0 no. (%)
  AE leading to dose interruption: Diabetes mellitus: 1 (0.2) no. (%)
  AE leading to dose interruption: Diarrhea: 0 no. (%)
  AE leading to dose interruption: Diplegia: 0 no. (%)
  AE leading to dose interruption: Dizziness: 0 no. (%)
  AE leading to dose interruption: Dyspnea: 0 no. (%)
  AE leading to dose interruption: Dysuria: 1 (0.2) no. (%)
  AE leading to dose interruption: Edema: 0 no. (%)
  AE leading to dose interruption: Eyelid edema: 0 no. (%)
  AE leading to dose interruption: Facial edema: 0 no. (%)
  AE leading to dose interruption: Fall: 1 (0.2) no. (%)
  AE leading to dose interruption: Fatigue: 1 (0.2) no. (%)
  AE leading to dose interruption: Febrile neutropenia: 1 (0.2) no. (%)
  AE leading to dose interruption: Gamma-glutamyltransferase increased: 1 (0.2) no. (%)
  AE leading to dose interruption: Gastric ulcer perforation: 1 (0.2) no. (%)
  AE leading to dose interruption: Gastritis: 0 no. (%)
  AE leading to dose interruption: General physical health deterioration: 1 (0.2) no. (%)
  AE leading to dose interruption: Hallucination: 0 no. (%)
  AE leading to dose interruption: Headache: 0 no. (%)
  AE leading to dose interruption: Hematoma: 1 (0.2) no. (%)
  AE leading to dose interruption: Hematuria: 2 (0.4) no. (%)
  AE leading to dose interruption: Hemorrhage intracranial: 1 (0.2) no. (%)
  AE leading to dose interruption: Hemorrhagic erosive gastritis: 1 (0.2) no. (%)
  AE leading to dose interruption: Hepatic cirrhosis: 0 no. (%)
  AE leading to dose interruption: Hepatic failure: 0 no. (%)
  AE leading to dose interruption: Hip fracture: 1 (0.2) no. (%)
  AE leading to dose interruption: Hot flush: 0 no. (%)
  AE leading to dose interruption: Hydronephrosis: 0 no. (%)
  AE leading to dose interruption: Hyperbilirubinemia: 1 (0.2) no. (%)
  AE leading to dose interruption: Hypersensitivity: 0 no. (%)
  AE leading to dose interruption: Hypertension: 6 (1.1) no. (%)
  AE leading to dose interruption: Hypertriglyceridemia: 2 (0.4) no. (%)
  AE leading to dose interruption: Hypokalemia: 1 (0.2) no. (%)
  AE leading to dose interruption: Hyponatremia: 1 (0.2) no. (%)
  AE leading to dose interruption: Infections: 4 (0.8) no. (%)
  AE leading to dose interruption: Influenza-like illness: 0 no. (%)
  AE leading to dose interruption: Insomnia: 0 no. (%)
  AE leading to dose interruption: Ischemic cardiac events: 1 (0.2) no. (%)
  AE leading to dose interruption: Large intestinal ulcer perforation: 1 (0.2) no. (%)
  AE leading to dose interruption: Mental status changes: 0 no. (%)
  AE leading to dose interruption: Muscular weakness: 0 no. (%)
  AE leading to dose interruption: Musculoskeletal stiffness: 0 no. (%)
  AE leading to dose interruption: Nausea: 0 no. (%)
  AE leading to dose interruption: Neutropenia: 2 (0.4) no. (%)
  AE leading to dose interruption: New cancer neoplasm: 1 (0.2) no. (%)
  AE leading to dose interruption: Osteoarthritis: 0 no. (%)
  AE leading to dose interruption: Osteoporosis: 0 no. (%)
  AE leading to dose interruption: Pain (grouped term): 4 (0.8) no. (%)
  AE leading to dose interruption: Pathological fracture: 0 no. (%)
  AE leading to dose interruption: Peripheral edema: 0 no. (%)
  AE leading to dose interruption: Peripheral swelling: 0 no. (%)
  AE leading to dose interruption: Proctalgia: 0 no. (%)
  AE leading to dose interruption: Pyrexia: 0 no. (%)
  AE leading to dose interruption: Rash (grouped term): 20 (3.8) no. (%)
  AE leading to dose interruption: Renal injury: 0 no. (%)
  AE leading to dose interruption: Rheumatoid arthritis: 1 (0.2) no. (%)
  AE leading to dose interruption: Seizure: 0 no. (%)
  AE leading to dose interruption: Spinal cord compression: 1 (0.2) no. (%)
  AE leading to dose interruption: Stomatitis: 0 no. (%)
  AE leading to dose interruption: Subarachnoid hematoma: 1 (0.2) no. (%)
  AE leading to dose interruption: Subarachnoid hemorrhage: 0 no. (%)
  AE leading to dose interruption: Subdural hemorrhage: 0 no. (%)
